Here are results for two substances from patent publication US7056734B1, “Differentiation of non-insulin producing cells into insulin producing cells by GLP-1 or exendin-4 and uses thereof” (The United States of America as represented by the …, priority 1998, dated 2006).

Assay [1] concerns AR42J cells. The following applies: Mashima et al., 1996; cited from earlier work.
In assay [2] the test system is AR42J cells. Description: 125I-GLP-1 binding to AR42J cells. The following applies: displacement by cold GLP-1, n=9. Also noted: species or system rat; dose or concentration left out as unconfirmed. As for the experimental part: GLP-1 binding. AR42J cells were plated and cultured as described above. At the start of the binding experiment the cells were incubated with serum-free DMEM for 2 h at 37° C. Cells were then washed twice with 0.5 ml binding buffer containing (in mM) 120 NaCl, 1.2 MgSO4, 13 sodium acetate, 5 KCl, 10 Tris, pH 7.6. […] We only used freshly prepared ^125I-GLP-1 within two weeks of the reference date. At the end of the incubation, the supernatant was discarded and the cells were washed three times with ice-cold PBS. Cells were lysed with 0.5 ml 0.5 N NaOH/0.1% SDS for 30 min at room temperature. The radioactivity was measured in the lysates in an ICN Apec series gamma counter. […] This method has been used previously to characterize GLP-1 binding in CHO cells overexpressing GLP-1 receptor and in 3T3-L1 adipocytes (Montrose-Rafizadeh et al., J. Biol. Chem., 1997; Montrose-Rafizadeh et al., J Cell Physiol., 1997).

Regarding HGF: hepatocyte growth factor, the “AR42J cells converted into insulin-producing / insulin positive cells” value in the assay on AR42J cells [1] is “about 3%”.

As to “^125I-GLP-1: radiolabelled GLP-1 (2,000 Ci/mmol, Peninsula)”, in the assay with AR42J cells [2], the “specific 125I-GLP-1 binding, % of total binding” value was 27±3.2% and the “specific 125I-GLP-1 binding, % of total radioactivity added” value stood at 0.64±0.16%.
